Assay results from paper PMC6339874, “Anthranilic Acid Inhibitors of Undecaprenyl Pyrophosphate Synthase (UppS), an Essential Enzyme for Bacterial Cell Wall Biosynthesis” (Frontiers in Microbiology, 2019).
Values after ≈ are worked out from the molar mass of the structure shown.

How the values were obtained:
[1] = molecular target: T1, undecaprenyl pyrophosphate synthase (UppS) (Escherichia coli, UniProt P60472); experiment: radiolabeled […]-IPP assay, TLC quantification of […]-UPP, IC50 from seven concentrations; assay type: biochemical
T1 construct: gene ispU; N-terminal His6-tagged UppSEc

S. aureus = experiment: microbe, parasite or virus in culture; parameters: antibacterial MIC determination on wild-type strains; conditions: Staphylococcus aureus, read-out: MIC S. aureus
E. coli = experiment: microbe, parasite or virus in culture; parameters: antibacterial MIC determination on wild-type strains; conditions: Escherichia coli, read-out: MIC E. coli
Experimental: E. coli AcrAB-TolC is a tripartite multidrug efflux pump system that expels compounds form the cell and this represents one of the possible mechanisms of bacterial defence against xenobiotics ([Kim et al., 2015]). […] On the other hand, compound 2 inhibited bacterial growth in both E. coli BW25113 ΔtolC strains with or without permeable membrane (MIC = 0.5 μg/mL). The antibacterial activity in the efflux pump-deficient E. coli BW25113 ΔtolC strain is independent from the presence of polymyxine B. Therefore, it can be postulated on the basis of the evaluation of compound 2, that transport across E. coli cell membrane is possible. This compound therefore represents an interesting starting point for further development, for example computational searches of similar compounds and analog synthesis.

[2] = molecular target: T2, undecaprenyl pyrophosphate synthase (UppS) (Escherichia coli, UniProt P60472); experiment: biochemical; parameters: radiolabeled [14C]-IPP UppS assay, TLC quantification of [14C]-UPP; residual activity or IC50; conditions: read-out: % of control remaining
T2 construct: gene ispU; N-terminal His6-tagged UppSEc
T2 sequence (P60472 1-253): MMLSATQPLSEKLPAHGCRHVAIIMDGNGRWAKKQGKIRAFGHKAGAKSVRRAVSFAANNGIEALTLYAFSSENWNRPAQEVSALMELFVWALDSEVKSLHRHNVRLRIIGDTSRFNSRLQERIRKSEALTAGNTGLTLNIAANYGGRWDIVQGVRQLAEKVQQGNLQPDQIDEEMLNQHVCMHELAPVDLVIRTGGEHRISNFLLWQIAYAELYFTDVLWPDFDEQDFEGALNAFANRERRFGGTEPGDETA
Experimental: The UppS enzymatic activity was determined by using a kinetics-based assay utilizing a radiolabeled substrate. The assay revolves on the measuring of UPP formation in the reaction mixture in a final volume of 40 μL. Stock solutions of all compounds (2 mM) were prepared in DMSO and the final concentration of DMSO in the assay was 5% (v/v). The enzyme was diluted in buffer A to appropriate concentration so that the consumption of the substrate in the assay is no higher than 30%. The reaction mixture consisted of 20 μL of 100 mM HEPES, pH 7.5, 50 mM KCl, 0.5 mM MgCl2, 1.5 μM FPP, 12 μM [^14C]-IPP ([^14C]-IPP; 289 Bq), 2 μL DMSO with or without the inhibitor and 18 μL of optimal enzyme solution. […] Reaction mixture was lyophilized and resuspended in 10 μL of purified water. The radiolabeled substrate, [^14C]-IPP, and the product, [^14C]UPP, were separated on a Silica gel 60 TLC plate using 1-propranol / ammonium hydroxide / water in ratio of 6/3/1 (v/v/v) as a mobile phase (Rf([^14C]–IPP) = 0.21, Rf[^14C]UPP = 0.56), and quantified with a radioactivity scanner (Rita Star, Raytest Isotopenmessgeräte GmbH, Straubenhardt, Germany). Residual activities (RAs) were calculated with respect to a control reaction without the tested compounds and with 5% DMSO. All the experiments were run in duplicate with standard deviations within ± 10%. The IC50 values represented the concentrations for which the RA was 50% and were determined by measuring the RAs at seven different compound concentrations. The 34 purchased compounds were tested for their inhibitory potencies against E. coli UppS using a radioactivity-based assay. In these test conditions, the [^14C]-UPP formation is observed thanks to a radiolabeled substrate ([^14C]-IPP) and quantified with a radioactivity scanner. The results are presented as RAs of UppS in the presence of 100 μM of each compound (Supplementary Table S1). […] Sodium risedronate was used as a positive control to enable the comparison of the purchased compounds to a known inhibitor and to confirm the results of the UppS inhibition assay. […] All three inhibitors are anthranilic acid derivatives with a larger hydrophobic moiety attached to the amide group via different linkers, 2-cyanoacryloyl for compounds 1 and 2 and 2-thioacetyl for compound 3.

N#C/C(=C\c1cn(Cc2cccc3ccccc23)c2ccccc12)C(=O)Nc1ccccc1C(=O)O [compound 1] was tested, and the IC50 [1] was 45 µM, the MIC (S. aureus) was > 128 µg/mL and the MIC (E. coli) was > 128 µg/mL.

In the case of N#C/C(=C\c1cccc(OCc2ccc(F)cc2)c1)C(=O)Nc1ccccc1C(=O)O [compound 2], the IC50 [1] is reported as 25 µM, the MIC (S. aureus) is reported as > 128 µg/mL and the MIC (E. coli) is reported as > 128 µg/mL.

For O=C(O)c1cccc(C(=O)NCCc2nc3ccccc3n2C(F)F)c1 [S20], the remaining activity at 100 µM [2] was 168%, the MIC (S. aureus) was > 128 µg/mL and the MIC (E. coli) was > 128 µg/mL.

For CCCCCCCCCCCCN(CP(=O)(O)O)CP(=O)(O)O [S34], the remaining activity at 100 µM [2] was 147%, the MIC (S. aureus) was 128 µg/mL (≈ 343 µM) and the MIC (E. coli) was > 128 µg/mL.

With Cc1ccc(-n2c(SCC(=O)Nc3ccccc3C(=O)O)nnc2-c2cc3ccccc3o2)cc1 [S18] the remaining activity at 100 µM [2] was 122%, the MIC (S. aureus) was > 128 µg/mL and the MIC (E. coli) was > 128 µg/mL.

With O=C(Nc1ccccc1C(=O)O)c1cccc(NC(=O)C(c2ccccc2)c2ccccc2)c1 [S14] the remaining activity at 100 µM [2] was 101%, the MIC (S. aureus) was 128 µg/mL (≈ 284 µM) and the MIC (E. coli) was > 128 µg/mL.

For Cc1cc(C)n(CCCNc2ccc(C(=O)c3ccccc3C(=O)O)cc2[N+](=O)[O-])n1 [S13], the remaining activity at 100 µM [2] was 92%, the MIC (S. aureus) was > 128 µg/mL and the MIC (E. coli) was > 128 µg/mL.

For Cc1ccc(N2CCN(C(=O)c3ccccc3NC(=O)C3CC=CCC3C(=O)O)CC2)cc1 (stereo not drawn) [S16], the remaining activity at 100 µM [2] was 104%, the MIC (S. aureus) was > 128 µg/mL and the MIC (E. coli) was > 128 µg/mL.

For O=C(O)c1ccccc1C(=O)Nc1ccc(C(=O)N(c2ccccc2)c2cccc3ccccc23)cc1 [S11], the remaining activity at 100 µM [2] was 60%, the MIC (S. aureus) was > 128 µg/mL and the MIC (E. coli) was > 128 µg/mL.

In the case of O=C(NCCc1ccccc1)c1ccc(NC(=O)c2nccnc2C(=O)O)cc1 [S30], the remaining activity at 100 µM [2] is reported as 122%, the MIC (S. aureus) is reported as > 128 µg/mL and the MIC (E. coli) is reported as > 128 µg/mL.

Cc1ccc(OCCNC(=O)C2CC=CCC2C(=O)O)cc1 (stereo not drawn) [S23] was tested, and the remaining activity at 100 µM [2] was 117%, the MIC (S. aureus) was > 128 µg/mL and the MIC (E. coli) was > 128 µg/mL.

O=C(O)c1ccccc1C(=O)NCCC(c1ccc(F)cc1)c1ccco1 (stereo not drawn) [S27] was tested, and the remaining activity at 100 µM [2] was 99%, the MIC (S. aureus) was > 128 µg/mL and the MIC (E. coli) was > 128 µg/mL.

For CCOc1ccc(N(CC(=O)Nc2ccccc2C(=O)O)S(=O)(=O)c2ccc(Cl)cc2)cc1 [S26], the remaining activity at 100 µM [2] was 102%, the MIC (S. aureus) was 128 µg/mL (≈ 262 µM) and the MIC (E. coli) was > 128 µg/mL.

In the case of Cc1cccc(N2CCN(c3ccc(NC(=O)C(C)C)c(C(=O)O)c3)CC2)c1 [S31], the remaining activity at 100 µM [2] is reported as 125%, the MIC (S. aureus) is reported as > 128 µg/mL and the MIC (E. coli) is reported as > 128 µg/mL.

With O=C(O)c1ccccc1C(=O)Nc1ccc(C(=O)N(c2ccccc2)c2ccc3ccccc3c2)cc1 [S2] the remaining activity at 100 µM [2] was 58%, the MIC (S. aureus) was > 128 µg/mL and the MIC (E. coli) was > 128 µg/mL.

For O=C(CSc1nnc(-c2cc3ccccc3o2)n1-c1ccccc1)Nc1ccccc1C(=O)O [compound 3], the IC50 [1] was 24 µM, the MIC (S. aureus) was > 128 µg/mL and the MIC (E. coli) was > 128 µg/mL.

For O=C(Cn1cc(-c2ccc(Cl)cc2)ncc1=O)NC(C(=O)O)c1ccccc1 (stereo not drawn) [S29], the remaining activity at 100 µM [2] was 96%, the MIC (S. aureus) was > 128 µg/mL and the MIC (E. coli) was > 128 µg/mL.

With O=C(Cc1ccccc1C(=O)O)Nc1ccn(Cc2ccccc2Cl)n1 [S5] the remaining activity at 100 µM [2] was 115%, the MIC (S. aureus) was > 128 µg/mL and the MIC (E. coli) was > 128 µg/mL.

For O=C(O)C1CC=CCC1C(=O)Nc1ccccc1C(=O)N1CCN(c2ccc(F)cc2)CC1 (stereo not drawn) [S19], the remaining activity at 100 µM [2] was 99%, the MIC (S. aureus) was > 128 µg/mL and the MIC (E. coli) was > 128 µg/mL.

Cc1ccc(Nc2nccc(Nc3ccc(O)c(C(=O)O)c3)n2)c(C)c1 [S9] was tested, and the remaining activity at 100 µM [2] was 72%, the MIC (S. aureus) was > 128 µg/mL and the MIC (E. coli) was > 128 µg/mL.

COc1ccc(C(=O)Nc2ccc(N3CCN(c4ccccc4F)CC3)cc2C(=O)O)cc1 [S21] was tested, and the remaining activity at 100 µM [2] was 74%, the MIC (S. aureus) was > 128 µg/mL and the MIC (E. coli) was > 128 µg/mL.

In the case of O=C(O)C1CCCCC1C(=O)Nc1ccc(N2CCN(Cc3ccccc3)CC2)cc1 (stereo not drawn) [S6], the remaining activity at 100 µM [2] is reported as 53%, the MIC (S. aureus) is reported as > 128 µg/mL and the MIC (E. coli) is reported as > 128 µg/mL.

For CCCn1cc(NC(=O)CNS(=O)(=O)c2cccc3c(N(C)C)cccc23)c(C(=O)O)c1 [S7], the remaining activity at 100 µM [2] was 85%, the MIC (S. aureus) was > 128 µg/mL and the MIC (E. coli) was > 128 µg/mL.

For CCCc1ccc(S(=O)(=O)Nc2ccc(N3CCN(C4CCCCC4)CC3)cc2C(=O)O)cc1 [S28], the remaining activity at 100 µM [2] was 113%, the MIC (S. aureus) was > 128 µg/mL and the MIC (E. coli) was > 128 µg/mL.

With O=C(Nc1ccc(COCc2ccccc2)cc1)c1ccnc(C(=O)O)c1 [S22] the remaining activity at 100 µM [2] was 93%, the MIC (S. aureus) was > 128 µg/mL and the MIC (E. coli) was > 128 µg/mL.

O=C(CN1CCCC1C(=O)O)NCc1ccc(COc2ccccc2)cc1 (stereo not drawn) [S15] was tested, and the remaining activity at 100 µM [2] was 124%, the MIC (S. aureus) was > 128 µg/mL and the MIC (E. coli) was > 128 µg/mL.

For COC(=O)C(NC(=O)c1ccccc1C(=O)O)c1ccc(OCc2ccccc2)c(OC)c1 (stereo not drawn) [S33], the remaining activity at 100 µM [2] was 65%, the MIC (S. aureus) was > 128 µg/mL and the MIC (E. coli) was > 128 µg/mL.

In the case of O=C(O)CCC(NC(=O)C(=Cc1cn(-c2ccccc2)nc1-c1cccnc1)NC(=O)c1ccccc1)C(=O)O (stereo not drawn) [S8], the remaining activity at 100 µM [2] is reported as 92%, the MIC (S. aureus) is reported as > 128 µg/mL and the MIC (E. coli) is reported as > 128 µg/mL.

For O=C(O)C1CCCCC1C(=O)Nc1ccc(N2CCN(c3cccc(Cl)c3Cl)CC2)cc1 (stereo not drawn) [S3], the remaining activity at 100 µM [2] was 96%, the MIC (S. aureus) was > 128 µg/mL and the MIC (E. coli) was > 128 µg/mL.

For Cc1sc(NC(=O)c2ccccc2C(=O)O)nc1-c1ccc(-c2ccccc2)cc1 [S12], the remaining activity at 100 µM [2] was 120%, the MIC (S. aureus) was > 128 µg/mL and the MIC (E. coli) was > 128 µg/mL.

For Cc1cccc(C(=O)O)c1NC(=O)COc1ccc(Cl)cc1 [S32], the remaining activity at 100 µM [2] was 122%, the MIC (S. aureus) was > 128 µg/mL and the MIC (E. coli) was > 128 µg/mL.

For CC(=O)c1ccc(NC(=O)C(Sc2ccc(NC(=O)c3ccccc3C(=O)O)cc2)c2ccccc2)cc1 (stereo not drawn) [S4], the remaining activity at 100 µM [2] was 101%, the MIC (S. aureus) was > 128 µg/mL and the MIC (E. coli) was > 128 µg/mL.

O=C(COc1ccccc1)Nc1ccc(N2CCN(c3ccc(Cl)cc3)CC2)cc1C(=O)O [S25] was tested, and the remaining activity at 100 µM [2] was 121%, the MIC (S. aureus) was 64 µg/mL (≈ 137 µM) and the MIC (E. coli) was > 128 µg/mL.
